Publication PMC10011331, “Vitamin C transporter SVCT1 serves a physiological role as a urate importer: functional analyses and in vivo investigations” (Pflugers Archiv, 2023)
Each block holds one compound with its values, some of them ahead of it.

Experiments:
Type in all cases: cell-based
SVCT1 [1] = target: T1, SVCT1 (Homo sapiens, UniProt Q9UHI7); test: inhibition of […]-vitamin C uptake in SVCT1-expressing […] cells (urate uptake IC50 […])
T1 construct: gene SLC23A1

SVCT1 [2] = target: T1, SVCT1; test: as above; remark: listed apart in the source
SVCT1 [3] = target: T1, SVCT1; test: as above; remark: listed apart in the source
GLUT9a = target: T2, GLUT9a (Homo sapiens, UniProt Q9NRM0); test: [[…]-14C]-urate uptake in GLUT9a-expressing cells, high-potassium buffer
T2 construct: gene SLC2A9; full-length human GLUT9a/SLC2A9a WT in pEGFP-N1
T2 sequence (Q9NRM0 1-540): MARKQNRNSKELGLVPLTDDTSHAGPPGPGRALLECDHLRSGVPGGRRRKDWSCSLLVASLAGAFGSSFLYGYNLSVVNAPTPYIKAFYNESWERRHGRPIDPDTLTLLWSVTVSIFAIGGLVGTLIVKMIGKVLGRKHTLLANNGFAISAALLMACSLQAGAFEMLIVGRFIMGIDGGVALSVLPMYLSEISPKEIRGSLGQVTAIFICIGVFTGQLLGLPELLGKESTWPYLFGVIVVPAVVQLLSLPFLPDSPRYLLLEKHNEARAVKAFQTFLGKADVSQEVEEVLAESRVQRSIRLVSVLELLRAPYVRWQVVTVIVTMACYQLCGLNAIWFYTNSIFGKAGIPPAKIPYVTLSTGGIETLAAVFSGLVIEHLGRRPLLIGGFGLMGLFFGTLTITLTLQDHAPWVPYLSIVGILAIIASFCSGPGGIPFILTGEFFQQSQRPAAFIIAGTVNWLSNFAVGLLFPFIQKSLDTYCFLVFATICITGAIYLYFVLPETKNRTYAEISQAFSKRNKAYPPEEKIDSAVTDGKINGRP

URAT1 = target: T3, URAT1 (Homo sapiens, UniProt Q96S37); test: [[…]-14C]-urate uptake in URAT1-expressing HEK293 cells
T3 construct: gene SLC22A12; full-length human URAT1 WT in pEGFP-C1
T3 sequence (Q96S37 1-553): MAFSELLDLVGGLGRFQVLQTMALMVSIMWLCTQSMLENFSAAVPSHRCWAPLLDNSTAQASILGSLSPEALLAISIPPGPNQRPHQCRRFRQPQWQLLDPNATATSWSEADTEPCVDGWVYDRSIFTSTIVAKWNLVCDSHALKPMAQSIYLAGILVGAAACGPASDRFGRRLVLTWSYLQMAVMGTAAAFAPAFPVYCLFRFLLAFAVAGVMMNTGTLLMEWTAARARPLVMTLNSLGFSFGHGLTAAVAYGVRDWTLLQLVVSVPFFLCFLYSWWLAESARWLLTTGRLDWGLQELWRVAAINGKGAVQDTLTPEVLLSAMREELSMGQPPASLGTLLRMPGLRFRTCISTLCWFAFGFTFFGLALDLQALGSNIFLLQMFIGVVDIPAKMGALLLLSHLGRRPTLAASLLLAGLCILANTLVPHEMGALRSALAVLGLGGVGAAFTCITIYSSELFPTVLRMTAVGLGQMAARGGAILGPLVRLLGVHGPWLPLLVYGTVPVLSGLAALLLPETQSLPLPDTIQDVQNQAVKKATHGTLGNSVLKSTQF

ABCG2 = target: T4, ABCG2 (Homo sapiens, UniProt Q9UNQ0)
T4 construct: EGFP-ABCG2 in plasma membrane vesicles from 293A cells
T4 sequence (Q9UNQ0 1-655): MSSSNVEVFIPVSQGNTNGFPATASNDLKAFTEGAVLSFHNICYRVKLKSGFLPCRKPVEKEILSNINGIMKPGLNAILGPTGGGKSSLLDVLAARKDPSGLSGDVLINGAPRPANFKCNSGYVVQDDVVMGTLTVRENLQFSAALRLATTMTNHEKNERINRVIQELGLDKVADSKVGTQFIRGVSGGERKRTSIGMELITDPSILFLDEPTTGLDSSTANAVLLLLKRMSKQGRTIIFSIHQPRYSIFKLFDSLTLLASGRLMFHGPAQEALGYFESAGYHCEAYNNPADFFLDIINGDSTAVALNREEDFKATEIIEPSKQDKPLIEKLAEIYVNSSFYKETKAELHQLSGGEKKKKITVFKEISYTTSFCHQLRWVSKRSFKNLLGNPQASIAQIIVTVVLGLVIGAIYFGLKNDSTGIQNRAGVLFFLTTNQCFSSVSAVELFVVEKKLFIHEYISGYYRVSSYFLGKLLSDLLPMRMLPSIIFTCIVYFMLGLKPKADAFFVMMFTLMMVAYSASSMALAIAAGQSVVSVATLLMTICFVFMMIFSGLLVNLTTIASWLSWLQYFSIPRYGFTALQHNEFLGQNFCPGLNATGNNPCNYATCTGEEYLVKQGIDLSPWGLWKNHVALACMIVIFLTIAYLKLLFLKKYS

SVCT1 [4] = target: T1, SVCT1; test: […]-vitamin C uptake and inhibition of […]-urate uptake in SVCT1-expressing HEK293 cells
Svct1 [5] = target: T5, Svct1 (Mus musculus, UniProt Q9Z2J0); test: […]-vitamin C uptake and inhibition of […]-urate uptake in Svct1-expressing HEK293 cells
T5 construct: gene Slc23a1; mouse Svct1 WT, EGFP fusion
T5 sequence (Q9Z2J0 whole entry, the tested form may be a part): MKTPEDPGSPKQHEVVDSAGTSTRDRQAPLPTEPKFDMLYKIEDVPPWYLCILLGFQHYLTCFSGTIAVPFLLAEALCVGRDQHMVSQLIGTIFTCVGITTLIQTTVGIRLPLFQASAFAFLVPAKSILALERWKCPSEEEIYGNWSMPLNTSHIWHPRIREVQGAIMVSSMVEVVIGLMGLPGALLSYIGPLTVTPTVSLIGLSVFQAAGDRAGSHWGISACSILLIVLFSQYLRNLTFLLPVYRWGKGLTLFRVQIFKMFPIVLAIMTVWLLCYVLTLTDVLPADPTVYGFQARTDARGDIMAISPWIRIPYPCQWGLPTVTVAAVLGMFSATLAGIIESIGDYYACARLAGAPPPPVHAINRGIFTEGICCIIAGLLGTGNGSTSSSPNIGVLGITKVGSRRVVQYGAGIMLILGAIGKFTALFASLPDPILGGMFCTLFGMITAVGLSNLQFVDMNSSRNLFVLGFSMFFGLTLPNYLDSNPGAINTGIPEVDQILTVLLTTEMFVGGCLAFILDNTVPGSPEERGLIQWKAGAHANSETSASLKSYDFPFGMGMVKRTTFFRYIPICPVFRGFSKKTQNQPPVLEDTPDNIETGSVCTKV

T1 sequence (Q9UHI7 whole entry): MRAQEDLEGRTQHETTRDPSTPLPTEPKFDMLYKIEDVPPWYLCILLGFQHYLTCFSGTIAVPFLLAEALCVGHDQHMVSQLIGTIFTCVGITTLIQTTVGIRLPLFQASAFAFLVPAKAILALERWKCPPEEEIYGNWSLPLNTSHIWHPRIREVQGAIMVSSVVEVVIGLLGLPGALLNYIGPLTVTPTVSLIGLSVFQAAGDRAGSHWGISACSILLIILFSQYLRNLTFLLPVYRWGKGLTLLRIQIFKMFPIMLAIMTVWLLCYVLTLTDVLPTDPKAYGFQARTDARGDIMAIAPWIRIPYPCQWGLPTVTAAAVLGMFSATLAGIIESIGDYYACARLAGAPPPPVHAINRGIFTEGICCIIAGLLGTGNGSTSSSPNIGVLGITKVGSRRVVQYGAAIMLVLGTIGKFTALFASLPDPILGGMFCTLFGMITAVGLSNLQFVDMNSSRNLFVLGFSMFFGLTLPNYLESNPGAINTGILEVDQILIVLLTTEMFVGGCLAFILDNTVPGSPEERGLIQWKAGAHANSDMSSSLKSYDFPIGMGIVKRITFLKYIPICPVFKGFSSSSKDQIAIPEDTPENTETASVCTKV

- IC50 (SVCT1 [1]): 2.86 µM
Compound: CCc1oc2cc(O)ccc2c1C(=O)c1cc(Br)c(O)c(Br)c1 [6-OH BBR, 6-hydroxybenzbromarone]

Compound: CCc1oc2ccccc2c1C(=O)c1cc(Br)c(O)c(Br)c1 [BBR, benzbromarone]
- IC50 (SVCT1 [2]): 8.39 µM

- IC50 (SVCT1 [3]): 11.8 µM
Compound: O=C(c1cc(Cl)c(O)c(Cl)c1)N1CS(=O)(=O)c2ccccc21 [DU, dotinurad]

Compound: O=c1[nH]c(=O)c2[nH]c(=O)[nH]c2[nH]1 [urate]
- [8-14C]-urate uptake in GLUT9a-expressing cells, high-potassium buffer (GLUT9a): Even under appropriate experimental conditions in which urate transport activities were detected, neither URAT1, GLUT9, nor ABCG2 could transport vitamin C
- [8-14C]-urate uptake in URAT1-expressing HEK293 cells (URAT1): Even under appropriate experimental conditions in which urate transport activities were detected, neither URAT1, GLUT9, nor ABCG2 could transport vitamin C
- [8-14C]-urate vesicle transport assay with ABCG2-expressing membrane vesicles (ABCG2): Even under appropriate experimental conditions in which urate transport activities were detected, neither URAT1, GLUT9, nor ABCG2 could transport vitamin C

Compound: O=C1O[C@H]([C@@H](O)CO)C(O)=C1O [vitamin C]
- IC50 (SVCT1 [4]): 95.1 µM
- IC50 (Svct1 [5]): 130 µM
